Results on 14 compounds are retold here after patent publication US20240279227A1, “FUSED HETEROCYCLIC DERIVATIVES” (Janssen Sciences Ireland Unlimited Company, priority 2021, published 2024).

A word on the EC50: it is the concentration needed to bring the measured effect to its halfway point. Read a low EC50 as higher potency in that assay. Usually CC50 stands for the concentration at which the toxic effect on the cells reaches its halfway point. The low end stands for greater toxicity to the cells, the high end for lower toxicity to the cells.

Molecules are shown by their SMILES. Where only a bound is given, the exact number is not on record here.

The test system of one data set is HBV. Briefly: Anti-HBV activity in HepG2.117 cell line (intracellular HBV DNA, real-time PCR). The format is cell-based, hepatitis B virus. Conditions: HepG2.117 cells, HBV replication induced, 3 days of treatment, intracellular HBV DNA by real-time PCR. An outline of the steps:
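HepG2.117 cells (Tet-off, doxycycline-free HBV replication) induced for HBV replication, then exposed to serially diluted compound for 3 days. Intracellular HBV DNA quantified by real-time PCR with HBV-specific primers and probe.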
Background: Quantitative PCR measures a nucleic acid by following its amplification.

A further data set deals with HepG2 or HepG2.117 cells. The data set can be described thus: Cytotoxicity, ATPlite Luminescence Assay. The format is cell-based, human. To be noted: 3-days incubation unless marked with *, ATPlite viability. In a few lines: (§1)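 Compounds were added to cells and incubated 3 or 4 days. ATP content was then measured by luminescence to gauge cell viability.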
Background: Cellular ATP, detected with luciferase, serves as a proxy for viable cell number.

Data set [1] is described as follows: Human liver microsome stability. The format is in vitro ADME. To be noted: 1 μM compound, NADPH 1 mM, pH 7.4, 37° C., 0-60 min; for HLM Metabolism t1/2: pooled human liver microsomes 0.5 mg/mL; for half-life at 1 μM: human, pooled human liver microsomes, pH 7.4, pooled human liver microsomes 0.5 mg/mL, read-out: HLM Metabolism t1/2. In a few lines: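 Pooled human liver microsomes (0.5 mg/mL) incubated at 37 °C with 1 μM compound in 0.1 M phosphate pH 7.4, 1 mM MgCl2; 1 mM NADPH starts reaction. Samples quenched in acetonitrile at 0–60 min, analysed by LC-MS against internal standard; half-life from slope of ln peak-area ratio versus time.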

A short description of data set [2]: Cytotoxicity, ATPlite Luminescence Assay. To be noted: human, HepG2 or HepG2.117 cells, 3-days incubation unless marked with *, ATPlite viability. The format is cell-based, human. An outline of the steps:
as §1

[3] abbreviates: Hepatitis B virus, HepG2.117, 72 h.

For `CNC(=O)[C@@H]1CN(C(C)c2ccc(N3CCCC3=O)nc2)C(=O)c2c3c(nn21)C[C@@H](C)N(C(=O)c1ccc(Cl)c(Cl)c1)C3` (relative stereo) [Compound 34B, (3R,7S)-2-(3,4-dichlorobenzoyl)-N,3-dimethyl-O-oxo-9-((S*)-1-(6-(2-oxopyrrolidin-1-yl)pyridin-3-yl)ethyl)-1,2,3,4,7,8,9,10-octahydropyrido[4′,3′:3,4]pyrazolo[1,5-a]pyrazine-7-carboxamide], in the data set with HBV, the EC50 was 0.049 µM. In the data set with HepG2 or HepG2.117 cells, this compound showed a CC50 of more than 50 µM. Moreover, in data set [1], the “HLM Metabolism t1/2” value was more than 3 h.

For `CNC(=O)[C@@H]1CN(C(C)c2ccc(-n3cncn3)cc2)C(=O)c2c3c(nn21)C[C@@H](C)N(C(=O)c1ccc(Cl)c(Cl)c1)C3` (single isomer, unassigned) [Compound 2B, (3R,7S)-9-((S*)-1-(4-(1H-1,2,4-triazol-1-yl)phenyl)ethyl)-2-(3,4-dichlorobenzoyl)-N,3-dimethyl-10-oxo-1,2,3,4,7,8,9,10-octahydropyrido[4′,3′:3,4]pyrazolo[1,5-a]pyrazine-7-carboxamide], the response with HBV was half-maximal at 0.017 µM (EC50). Also, the CC50 in the data set on HepG2 or HepG2.117 cells is more than 50 µM. Also, the “HLM Metabolism t1/2” value in data set [1] was more than 3 h.

The compound `CNC(=O)[C@@H]1CN(C(C)c2ccc(OC(F)F)nc2)C(=O)c2c3c(nn21)C[C@@H](C)N(C(=O)c1ccc(Cl)c(Cl)c1)C3` (single isomer, unassigned) [Compound 11A, (3R,7S)-2-(3,4-Dichlorobenzoyl)-9-((R*)-1-(6-(difluoromethoxy)pyridin-3-yl)ethyl)-N,3-dimethyl-10-oxo-1,2,3,4,7,8,9,10-octahydropyrido[4′,3′:3,4]pyrazolo[1,5-a]pyrazine-7-carboxamide] yielded a concentration giving a half-maximal response (EC50) in the data set with HBV of 0.12 µM. Also, the CC50 in the data set with HepG2 or HepG2.117 cells is more than 50 µM. The half-life at 1 μM in data set [1] is more than 3 h.

Consider `CNC(=O)[C@@H]1CN(Cc2ccc(OC(F)F)cc2)C(=O)c2c3c(nn21)C[C@@H](C)N(C(=O)c1ccc(Cl)c(Cl)c1)C3` [Compound 17, (3R,7S)-2-(3,4-Dichlorobenzoyl)-9-(4-(difluoromethoxy)benzyl)-N,3-dimethyl-10-oxo-1,2,3,4,7,8,9,10-octahydropyrido[4′,3′:3,4]pyrazolo[1,5-a]pyrazine-7-carboxamide], for which it took 0.036 µM to reach a half-maximal effect in the data set with HBV (setting [3]) (EC50). The compound further registered a CC50 in data set [2] of 39.1 µM. Moreover, in data set [1], the half-life at 1 μM is more than 3 h.

`CNC(=O)[C@@H]1CN([C@H](C)c2ccc(S(C)(=O)=O)cc2)C(=O)c2c3c(nn21)C[C@@H](C)N(C(=O)c1ccc(Cl)c(Cl)c1)C3` [Compound 18A, (3R,7S)-2-(3,4-Dichlorobenzoyl)-N,3-dimethyl-9-((R)-1-(4-(methylsulfonyl)phenyl)ethyl)-10-oxo-1,2,3,4,7,8,9,10-octahydropyrido[4′,3′:3,4]pyrazolo[1,5-a]pyrazine-7-carboxamide]: in the data set with HBV (setting [3]), the response was half-maximal at 0.597 µM (EC50). Besides, in data set [2], the CC50 was more than 50 µM. For the same compound, the half-life at 1 μM in data set [1] was more than 3 h.

In the data set on HBV (setting [3]), `CNC(=O)[C@@H]1CN([C@@H](C)c2ccc(S(C)(=O)=O)cc2)C(=O)c2c3c(nn21)C[C@@H](C)N(C(=O)c1ccc(Cl)c(Cl)c1)C3` [Compound 18B, (3R,7S)-2-(3,4-Dichlorobenzoyl)-N,3-dimethyl-9-((S)-1-(4-(methylsulfonyl)phenyl)ethyl)-10-oxo-1,2,3,4,7,8,9,10-octahydropyrido[4′,3′:3,4]pyrazolo[1,5-a]pyrazine-7-carboxamide] had an EC50 of 0.037 µM. In data set [2], this compound gave a CC50 of more than 50 µM. For the same compound, the half-life at 1 μM in data set [1] was more than 3 h.

`CNC(=O)[C@@H]1CN(Cc2ccc(S(=O)(=O)C3CC3)cc2)C(=O)c2c3c(nn21)C[C@@H](C)N(C(=O)c1ccc(Cl)c(C(F)(F)F)c1)C3` [Compound 21, (3R,7S)-2-(4-Chloro-3-(trifluoromethyl)benzoyl)-9-(4-(cyclopropylsulfonyl)benzyl)-N,3-dimethyl-10-oxo-1,2,3,4,7,8,9,10-octahydropyrido[4′,3′:3,4]pyrazolo[1,5-a]pyrazine-7-carboxamide]: a half-maximal response with HBV (setting [3]) (EC50) required 0.086 µM. In addition, the CC50 in data set [2] is more than 50 µM. Besides, in data set [1], the half-life at 1 μM was more than 3 h.

In the data set with HBV (setting [3]), `CNC(=O)[C@@H]1CN([C@@H](C)c2ccc(OC(F)F)cc2)C(=O)c2c3c(nn21)C[C@@H](C)N(C(=O)c1ccc(Cl)c(C(F)F)c1)C3` [Compound 25, (3R,7S)-2-(4-Chloro-3-(difluoromethyl)benzoyl)-9-((S)-1-(4-(difluoromethoxy)phenyl)ethyl)-N,3-dimethyl-10-oxo-1,2,3,4,7,8,9,10-octahydropyrido[4′,3′:3,4]pyrazolo[1,5-a]pyrazine-7-carboxamide] returned an EC50 of 0.01 µM. This compound displayed a CC50 in data set [2] of more than 50 µM. In addition, in data set [1], the half-life at 1 μM was found to be 1.3 h.

`C[C@@H]1Cc2nn3c(c2CN1C(=O)c1ccc(Cl)c(C#N)c1)C(=O)N([C@H](C)c1ccc(OC(F)F)cc1)C[C@H]3C(=O)N(C)C` [Compound 27A, (3R,7S)-2-(4-Chloro-3-cyanobenzoyl)-9-((R)-1-(4-(difluoromethoxy)phenyl)ethyl)-N,N,3-trimethyl-10-oxo-1,2,3,4,7,8,9,10-octahydropyrido[4′,3′:3,4]pyrazolo[1,5-a]pyrazine-7-carboxamide]: in the data set with HBV (setting [3]), the response was half-maximal at 0.031 µM (EC50). In data set [2], this compound came in with a CC50 of more than 50 µM. In data set [1], the half-life at 1 μM was more than 3 h.

`C[C@@H]1Cc2nn3c(c2CN1C(=O)c1ccc(Cl)c(C#N)c1)C(=O)N([C@@H](C)c1ccc(OC(F)F)cc1)C[C@H]3C(=O)N(C)C` [Compound 27B, (3R,7S)-2-(4-chloro-3-cyanobenzoyl)-9-((S)-1-(4-(difluoromethoxy)phenyl)ethyl)-N,N,3-trimethyl-10-oxo-1,2,3,4,7,8,9,10-octahydropyrido[4′,3′:3,4]pyrazolo[1,5-a]pyrazine-7-carboxamide] displayed an EC50 in the data set on HBV (setting [3]) of 0.046 µM. Also, the CC50 in data set [2] was more than 50 µM. Moreover, the half-life at 1 μM in data set [1] is more than 3 h.

As to `CNC(=O)[C@@H]1CN(Cc2ccc(OC(F)F)cc2)C(=O)c2c3c(nn21)C[C@@H](C)N(C(=O)c1ccc(Cl)c(C(F)(F)F)c1)C3` [Compound 28, (3R,7S)-2-(4-Chloro-3-(trifluoromethyl)benzoyl)-9-(4-(difluoromethoxy)benzyl)-N,3-dimethyl-10-oxo-1,2,3,4,7,8,9,10-octahydropyrido[4′,3′:3,4]pyrazolo[1,5-a]pyrazine-7-carboxamide], the EC50 in the data set on HBV (setting [3]) was determined as 0.019 µM. For the same compound, in data set [2], half-maximal cytotoxicity (CC50) was put at 29.5 µM. Besides, in data set [1], the half-life at 1 μM is more than 3 h.

Turning to `CNC(=O)[C@@H]1CN([C@@H](C)c2ccc(OC(F)F)cc2)C(=O)c2c3c(nn21)C[C@@H](C)N(C(=O)c1ccc(Cl)c(C(F)(F)F)n1)C3` [Compound 45, (3R,7S)-2-(5-Chloro-6-(trifluoromethyl)picolinoyl)-9-((S)-1-(4-(difluoromethoxy)phenyl)ethyl)-N,3-dimethyl-10-oxo-1,2,3,4,7,8,9,10-octahydropyrido[4′,3′:3,4]pyrazolo[1,5-a]pyrazine-7-carboxamide], in the data set with HBV (setting [3]), the response was half-maximal at 0.067 µM (EC50). This compound had a CC50 in data set [2] of 49.8 µM. Besides, the half-life at 1 μM in data set [1] was more than 3 h.

In the data set on HBV (setting [3]), `C[C@@H]1Cc2nn3c(c2CN1C(=O)c1ccc(Cl)c(Cl)c1)C(=O)N([C@H](C)c1ccc(OC(F)F)cc1)CC3` [Ref 1, reference compound] registered an EC50 of 0.069 µM. The CC50 in data set [2] was more than 50 µM. The half-life at 1 μM in data set [1] is 0.257 h.

Compound `C[C@@H]1Cc2nn3c(c2CN1C(=O)c1ccc(Cl)c(Cl)c1)C(=O)N([C@@H](C)c1ccc(OC(F)F)cc1)CC3` [Ref 2, reference compound] gave an EC50 in the data set with HBV (setting [3]) of 0.026 µM. The CC50 in data set [2] stood at 19.8 µM. In data set [1], the half-life at 1 μM was determined as 0.117 h.
